Source: patent publication US4371465A, “Mammalian collagenase inhibitors” (American Home Products Corporation, priority 1981, dated 1983)

Tested on: collagenase
Assay: Collagenase inhibition (acetyl 14C collagen hydrolysis, procedure of Sellers et al.)
Type: biochemical
Conditions: 2 mM inhibitor; 35° C., 5 to 18 hours; Tris-CaCl2 pH 7.4; vs control devoid of inhibitor
Experimental: The inhibitory effect of the compounds of this invention toward collagenase was determined following the procedure of Sellers et al., Biochem J. 167 353-360 (1977) whereby the 2mM of the inhibitor being tested is incubated at 35° C. for from 5 to 18 hours (depending upon the potency of the collagenase) with collagen and collagenase (buffered with Tris®-CaCl2; pH 7.4). The collagen is acetyl ^14 C collagen. The samples are centrifuged and an aliquot removed for assay on a scintillation counter. Because native collagen forms insoluble fibrils under the test conditions, the supernatant liquid contains radioactivity as a measure of hydrolysis. The collagenase activity in the presence of 2mM inhibitor is compared to activity in a control devoid of inhibitor and the results reported as percent inhibition of collagenase activity. Each of the compounds of this invention have been established as active collagenase inhibitors by the test procedure.
The following example illustrates the preparation of a typical, representative compound of the invention. The precent inhibition of collagenase activity at the 2 mM polypeptide level in accordance with the previously described standard testing procedure is provided after the preparatory description is compared to D-penicillamine alone, the latter being a known collagenase inhibitor.

Q: `CC(C)(S)[C@@H](N)C(=O)O` [D-penicillamine] was tested. Which Percent inhibition collagenase did it give?
A: The Percent inhibition collagenase was 39.
